According to patent publication US10670605B2, “Cysteine reactive probes and uses thereof” (The Scripps Research Institute, priority 2015, dated 2020):
Structures can show the parent of a compound that is named as a salt. One block for each compound: values may come before it.

What was measured:
primary human T cells = experiment: IL-2 release (ELISA), anti-CD3 + anti-CD28 stimulated T cells; assay type: cell-based; settings: anti-CD3, anti-CD28 stimulation, 8 h
Experimental: 96-well plates were coated with anti-CD3 (1:200; BioXcell) and anti-CD28 (1:500; 302933; BioLegend) in PBS (100 μL/well) overnight at 4° C. The plates were then washed twice with PBS and to each well was added 500,000 primary T cells in 100 μL of RPMI supplemented with 10% FBS, glutamine, and Pen-Strep. Cells were then treated with 100 μL of media containing compound at the indicated concentrations (final well volume of 200 μL). Cells were left at 37° C. in a 5% CO2 incubator for the indicated periods of time and harvested by centrifugation (500 g, 8 min, 4° C.), followed by washing with PBS. T cells were harvested and stimulated as described above. At the indicated time points, cell culture supernatants were collected and IL-2 levels were measured in clear microplates (991427; R&D Systems) according to the manufacturer's instructions (Human IL-2 DuoSet ELISA; DY202; R&D Systems). Plates were read in a Gemini SpectraMax 250 microplate reader set to 450 nm. Data represent mean±SE for four experiments per group.

USP48 C39 (Q86UV5) = molecular target: T1, USP48 C39 (Q86UV5) (Homo sapiens, UniProt Q86UV5); experiment: Competitive isoTOP-ABPP in situ; assay type: cell-based; settings: fragment 2 at 200 μM, MDA-MB-231 cells
T1 sequence (Q86UV5 1-1035): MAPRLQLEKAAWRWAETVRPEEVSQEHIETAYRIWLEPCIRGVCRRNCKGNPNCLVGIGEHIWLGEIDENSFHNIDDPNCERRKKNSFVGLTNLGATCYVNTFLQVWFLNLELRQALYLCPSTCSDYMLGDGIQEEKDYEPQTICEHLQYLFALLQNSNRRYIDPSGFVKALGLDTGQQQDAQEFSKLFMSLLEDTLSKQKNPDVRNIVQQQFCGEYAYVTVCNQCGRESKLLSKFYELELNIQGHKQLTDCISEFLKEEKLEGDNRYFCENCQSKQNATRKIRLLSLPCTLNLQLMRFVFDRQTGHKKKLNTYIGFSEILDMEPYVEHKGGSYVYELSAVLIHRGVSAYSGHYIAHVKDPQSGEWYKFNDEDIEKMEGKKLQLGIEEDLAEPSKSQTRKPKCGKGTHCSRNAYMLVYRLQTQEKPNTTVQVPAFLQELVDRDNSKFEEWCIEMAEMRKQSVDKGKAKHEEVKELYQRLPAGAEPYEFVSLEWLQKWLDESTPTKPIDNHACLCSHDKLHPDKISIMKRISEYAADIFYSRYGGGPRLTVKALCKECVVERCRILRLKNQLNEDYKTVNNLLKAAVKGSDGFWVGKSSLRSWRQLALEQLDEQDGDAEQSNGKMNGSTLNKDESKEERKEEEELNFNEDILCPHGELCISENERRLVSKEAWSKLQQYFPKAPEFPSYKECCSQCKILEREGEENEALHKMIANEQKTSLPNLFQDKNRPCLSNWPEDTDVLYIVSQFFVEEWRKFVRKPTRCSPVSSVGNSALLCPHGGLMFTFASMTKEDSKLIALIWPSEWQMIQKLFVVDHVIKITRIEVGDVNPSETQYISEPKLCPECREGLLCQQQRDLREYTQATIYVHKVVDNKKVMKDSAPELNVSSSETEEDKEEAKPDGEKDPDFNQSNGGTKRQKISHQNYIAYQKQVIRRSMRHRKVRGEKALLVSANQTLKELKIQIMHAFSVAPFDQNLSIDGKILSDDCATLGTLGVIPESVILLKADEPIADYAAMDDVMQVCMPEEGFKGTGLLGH

[1] = test system: cysteines in MDA-MB-231 and Ramos cell proteomes; experiment: Competitive isoTOP-ABPP in cell lysates (in vitro): proteomic reactivity / liganded cysteine rate; assay type: binding, human; settings: fragment 500 μM; % of quantified cysteines with R ≥4
Experimental: All cell lines were obtained from ATCC, were used with a low passage number and were grown at 37° C. with 5% CO2. MDA-MB-231 cells and HEK-293T cells were grown in DMEM supplemented with 10% fetal bovine serum, penicillin, streptomycin and glutamine. Jurkat, Ramos and MUM2C cells were grown in RPMI-1640 medium supplemented with 10% fetal bovine serum, penicillin and streptomycin. For in vitro labeling, cells were grown to 100% confluence for MDA-MB-231 cells or until cell density reached 1.5 million cells/mL for Ramos and Jurkat cells. […] Cell pellets were lysed by sonication and fractionated (100,000 g, 45 min) to yield soluble and membrane fractions, which were then adjusted to a final protein concentration of 1.5 mg/mL for proteomics experiments and 1 mg/mL for gel-based ABPP experiments. The soluble lysate was prepared fresh from frozen pellets directly before each experiment. Protein concentration was determined using the Bio-Rad DC™ protein assay kit.
For each sample, 100 μL of streptavidin-agarose beads slurry (Pierce) was washed in 10 mL PBS and then resuspended in 5 mL PBS. The SDS-solubilized proteins were added to the suspension of streptavidin-agarose beads and the bead mixture was rotated for 3 h at ambient temperature. After incubation, the beads were pelleted by centrifugation (1,400 g, 3 min) and were washed (2×10 mL PBS and 2×10 mL water).
The beads were transferred to eppendorf tubes with 1 mL PBS, centrifuged (1,400 g, 3 min), and resuspended in PBS containing 6 M urea (500 μL). To this was added 10 mM DTT (25 μL of a 200 mM stock in water) and the beads were incubated at 65° C. for 15 mins. 20 mM iodoacetamide (25 μL of a 400 mM stock in water) was then added and allowed to react at 37° C. for 30 mins with shaking. The bead mixture was diluted with 900 μL PBS, pelleted by centrifugation (1,400 g, 3 min), and resuspended in 200 μL PBS. To this was added 1 mM CaCl2 ([…]) and trypsin (2 μg, Promega, sequencing grade) and the digestion was allowed to proceed overnight at 37° C. with shaking. The beads were separated from the digest with Micro Bio-Spin columns (Bio-Rad) by centrifugation (1,000 g, 1 min), washed (2×1 mL PBS and 2×1 mL water) and then transferred to fresh eppendorfs with 1 mL water. The washed beads were washed once further in 140 μL TEV buffer (50 mM Tris, pH 8, 0.5 mM EDTA, 1 mM DTT) and then resuspended in 140 μL TEV buffer. 5 μL TEV protease (80 μM) was added and the reactions were rotated overnight at 29° C. The TEV digest was separated from the beads with Micro Bio-Spin columns by centrifugation (1,400 g, 3 min) and the beads were washed once with water (100 μL). The samples were then acidified to a final concentration of 5% (v/v) formic acid and stored at −80° C. prior to analysis.

PGPEPI C149 (Q9NXJ5) = PGPEPI C149 (Q9NXJ5) (Homo sapiens, UniProt Q9NXJ5); experiment: Competitive isoTOP-ABPP in situ; assay type: cell-based; settings: fragment 4 at 100 μM, MDA-MB-231 cells
Sequence of PGPEPI C149 (Q9NXJ5) (Q9NXJ5 whole entry, the tested form may be a part): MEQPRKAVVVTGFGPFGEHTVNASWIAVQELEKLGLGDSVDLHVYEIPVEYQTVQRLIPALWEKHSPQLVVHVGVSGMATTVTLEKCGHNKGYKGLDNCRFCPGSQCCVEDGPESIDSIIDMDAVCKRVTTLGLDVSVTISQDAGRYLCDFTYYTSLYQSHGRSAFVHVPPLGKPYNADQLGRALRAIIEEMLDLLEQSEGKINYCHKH

SMILES: COC(=O)/C=C/C(=O)OC [DMF, dimethyl fumarate]
secretion of IL-2 (primary human T cells): strongly inhibited

isoTOP-ABPP reactivity profile (ratio) 2_200 μM_in-situ_231 (USP48 C39 (Q86UV5)): 20.0
SMILES: COc1ccc2c(c1)CCCN2C(=O)CCl [compound 2]

SMILES: O=C(CCl)Nc1cc(C(F)(F)F)cc(C(F)(F)F)c1 [compound 3]
proteomic reactivity value (liganded cysteine rate) [1]: 15%

isoTOP-ABPP reactivity profile (ratio) 4_100 μM_in-situ_231 (PGPEPI C149 (Q9NXJ5)): 20.0
SMILES: COc1ccc(C2CC(c3cccs3)=NN2C(=O)CCl)cc1 (stereo not shown) [compound 4]
